From ChEMBL document CHEMBL6153144, “Conformational Role of Methyl in the Potency of Cyclohexane-Substituted Squaramide CCR6 Antagonists” (J Med Chem, 2025)

Key:
[1] = Lipophilicity, logD of compound by shake flask method; format: physicochemical; settings: octanol/water
[2] = Metabolic stability in human hepatocytes assessed as apparent intrinsic clearance measured per molar; format: ADME, cell-based, Hepatocyte
[3] = molecular target: Voltage-gated inwardly rectifying potassium channel KCNH2 (Homo sapiens, UniProt Q12809); assay: Inhibition of hERG; format: toxicity
Sequence of Voltage-gated inwardly rectifying potassium channel KCNH2 (Q12809 whole entry, canonical isoform): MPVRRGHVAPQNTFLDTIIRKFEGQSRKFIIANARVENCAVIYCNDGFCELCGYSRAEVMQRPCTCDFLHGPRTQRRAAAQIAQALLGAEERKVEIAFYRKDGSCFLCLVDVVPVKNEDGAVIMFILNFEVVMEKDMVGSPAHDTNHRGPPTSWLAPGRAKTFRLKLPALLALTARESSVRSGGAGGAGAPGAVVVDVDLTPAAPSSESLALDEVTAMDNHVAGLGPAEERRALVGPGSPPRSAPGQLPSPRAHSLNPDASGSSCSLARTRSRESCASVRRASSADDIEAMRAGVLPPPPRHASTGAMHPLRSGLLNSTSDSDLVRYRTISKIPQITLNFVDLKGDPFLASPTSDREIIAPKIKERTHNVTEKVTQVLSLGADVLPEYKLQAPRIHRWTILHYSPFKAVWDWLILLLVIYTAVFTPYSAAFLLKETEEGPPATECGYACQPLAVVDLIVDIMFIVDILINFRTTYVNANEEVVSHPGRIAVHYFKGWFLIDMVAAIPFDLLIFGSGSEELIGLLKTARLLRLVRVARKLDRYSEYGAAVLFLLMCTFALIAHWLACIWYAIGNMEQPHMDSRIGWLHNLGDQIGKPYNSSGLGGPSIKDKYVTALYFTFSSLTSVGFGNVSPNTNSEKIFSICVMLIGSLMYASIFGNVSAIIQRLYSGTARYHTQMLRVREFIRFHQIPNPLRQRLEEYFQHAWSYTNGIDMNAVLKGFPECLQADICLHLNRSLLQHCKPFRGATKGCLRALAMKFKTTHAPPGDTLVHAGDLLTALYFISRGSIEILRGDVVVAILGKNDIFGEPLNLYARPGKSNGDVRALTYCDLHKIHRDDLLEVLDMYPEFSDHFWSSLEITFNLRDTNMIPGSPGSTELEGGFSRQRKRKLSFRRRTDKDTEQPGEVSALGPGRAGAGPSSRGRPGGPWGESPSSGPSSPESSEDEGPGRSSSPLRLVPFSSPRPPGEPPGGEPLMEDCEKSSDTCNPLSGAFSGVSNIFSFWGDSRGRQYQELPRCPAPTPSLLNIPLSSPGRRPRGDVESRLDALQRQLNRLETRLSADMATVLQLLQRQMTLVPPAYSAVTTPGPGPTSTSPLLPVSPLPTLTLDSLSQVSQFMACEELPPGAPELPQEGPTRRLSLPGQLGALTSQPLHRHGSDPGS

CYP (isoform not stated) = CYP (isoform not stated) (Homo sapiens, UniProt P04798+P05177+P05181+P08684+P10632+P10635+P11509+P11712+P13584+P20813+P20815+P20853+P24462+P24903+P33260+P33261+P51589+P78329+P98187+Q02928+Q08477+Q16678+Q16696+Q5TCH4+Q6VVX0+Q7Z449+Q8TAV3+Q96SQ9+Q9HB55); assay: Inhibition of CYP (unknown origin) at 3 uM relative to control; format: ADME, protein assay

SMILES	CL(app) [2] [µL/min]	further results
CN(C)C(=O)c1nccc(Nc2c(NC3CCCCC3)c(=O)c2=O)c1O		logD [1]: 0.86
C[C@H]1OCCC[C@@]1(C)Nc1c(Nc2ccnc(C(=O)N(C)C)c2O)c(=O)c1=O	3.4	
C[C@H]1CCCC[C@H]1Nc1c(Nc2ccnc(C(=O)N(C)C)c2O)c(=O)c1=O	6.8	
C[C@@H]1CCCC[C@@H]1Nc1c(Nc2ccnc(C(=O)N(C)C)c2O)c(=O)c1=O	4.7	
C[C@@H]1CCC[C@H](C)[C@@H]1Nc1c(Nc2ccnc(C(=O)N(C)C)c2O)c(=O)c1=O	6.9	
C[C@@H]1OCCC[C@]1(C)Nc1c(Nc2ccnc(C(=O)N(C)C)c2O)c(=O)c1=O	2.9	IC50 [3]: > 100 µM; inhibition at 3 µM (CYP (isoform not stated)): < 5%
C[C@@H]1CCCC[C@]1(C)Nc1c(Nc2ccnc(C(=O)N(C)C)c2O)c(=O)c1=O	9.9	
C[C@H]1CCCC[C@@]1(C)Nc1c(Nc2ccnc(C(=O)N(C)C)c2O)c(=O)c1=O	8.3	
